Reference: patent publication US8815796B2, “Polyheterocyclic compounds highly potent as HCV inhibitors” (AB Pharma Ltd., priority 2010, dated 2014)

biological target: T1, HCV NS3-4A protease (Hepatitis C virus genotype 1a, UniProt P27958); assay: HCV NS3-4A protease assay in vitro (FRET-S substrate); format: biochemical; details: not given
T1 construct: HCV NS3-4A protease
Experimental: HCV NS3-4A Protease Assay In Vitro.
The assay was conducted in Buffer A containing 30 mM NaCl, 5 mM CaCl2, 10 mM DTT, 50 mM Tris (pH7.8), using the Ac-Asp-Glu-Asp(EDANS)-Glu-Glu-Abu-ψ-[COO]-Ala-Ser-Lys (DABCYL)-NH2 (FRET-S) fluorescent peptide (AnaSpec, USA) as substrate. Briefly, 140 μL buffer A, 20 μL compounds dissolved in buffer A with different concentration and 20 μL HCV NS3-4A protease diluted in buffer A were added into 96-well plate respectively and mixed well. The reaction was initiate with adding 20 μL of FRET-S. Reactions were continuously monitored at 37° C. using a BMG Polarstar Galaxy (MTX Lab Systems, Inc. USA), with excitation and emission filters of 355 nm and 520 nm, respectively. The 50% inhibitory concentration (IC50) was calculated with Reed & Muench methods.

T1 sequence (P27958 1027-1657): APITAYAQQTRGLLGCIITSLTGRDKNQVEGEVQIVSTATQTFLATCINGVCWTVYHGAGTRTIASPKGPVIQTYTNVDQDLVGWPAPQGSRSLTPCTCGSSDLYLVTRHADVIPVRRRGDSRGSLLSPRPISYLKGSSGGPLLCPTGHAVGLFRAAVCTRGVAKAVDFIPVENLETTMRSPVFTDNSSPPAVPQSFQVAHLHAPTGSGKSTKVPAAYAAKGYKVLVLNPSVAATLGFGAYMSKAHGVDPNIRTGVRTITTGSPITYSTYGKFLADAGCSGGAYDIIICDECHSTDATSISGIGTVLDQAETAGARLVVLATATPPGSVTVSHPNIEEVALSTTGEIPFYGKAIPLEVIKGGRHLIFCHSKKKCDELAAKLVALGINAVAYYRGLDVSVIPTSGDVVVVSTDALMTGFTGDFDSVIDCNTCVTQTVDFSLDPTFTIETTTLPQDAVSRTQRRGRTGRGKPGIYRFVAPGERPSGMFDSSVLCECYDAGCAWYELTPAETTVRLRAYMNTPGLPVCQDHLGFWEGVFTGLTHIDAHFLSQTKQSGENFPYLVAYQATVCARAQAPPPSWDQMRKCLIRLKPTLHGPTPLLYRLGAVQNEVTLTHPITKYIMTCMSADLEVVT
T1 sequence (P27958 1658-1711): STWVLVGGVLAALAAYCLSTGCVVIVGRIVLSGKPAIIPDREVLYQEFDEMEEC

| Compound | IC50 |
| --- | --- |
| CC[C@H]1C[C@@]1(NC(=O)C1C[C@@H](OC(=O)N2Cc3ccc4c(c3C2)OCO4)CN1C(=O)[C@@H](NC(=O)[C@@H](NC(=O)c1cnccn1)C1CCCCC1)C(C)(C)C)C(=O)NS(=O)(=O)C1CC1 (stereo partly shown) [Compound 30f] | < 30 nM |
| CCC[C@H](NC(=O)C1C[C@@H](OC(=O)N2Cc3ccc4c(c3C2)OCCO4)CN1C(=O)[C@@H](NC(=O)[C@@H](NC(=O)c1cnccn1)C1CCCCC1)C(C)(C)C)C(=O)C(=O)NC1CC1 (stereo partly shown) [Compound 33d] | > 200 nM |
| C=C[C@H]1C[C@@]1(NC(=O)C1C[C@@H](OC(=O)N2Cc3ccc4c(c3C2)OCCO4)CN1C(=O)[C@@H](NC(=O)[C@@H](NC(=O)c1cnccn1)C1CCCCC1)C(C)(C)C)C(=O)NS(=O)(=O)C1CC1 (stereo partly shown) [Compound 30d] | < 30 nM |
| CC[C@H]1C[C@@]1(NC(=O)C1C[C@@H](OC(=O)N2Cc3cc4c(cc3C2)OCO4)CN1C(=O)[C@@H](NC(=O)[C@@H](NC(=O)OC(C)(C)C)C1CCCCC1)C(C)(C)C)C(=O)NS(=O)(=O)C1CC1 (stereo partly shown) [Compound 30m] | < 30 nM |
| CCOC(=O)N[C@H](C(=O)N[C@H](C(=O)N1C[C@H](OC(=O)N2Cc3cc4c(cc3C2)OCO4)CC1C(=O)N[C@@]1(C(=O)NS(=O)(=O)C2CC2)C[C@@H]1CC)C(C)(C)C)C1CCCCC1 (stereo partly shown) [Compound 30v] | < 30 nM |
| CC[C@H]1C[C@@]1(NC(=O)C1C[C@@H](OC(=O)N2Cc3cc4c(cc3C2)OCCCO4)CN1C(=O)[C@@H](NC(=O)[C@@H](NC(=O)OC(C)(C)C)C1CCCCC1)C(C)(C)C)C(=O)NS(=O)(=O)C1CC1 (stereo partly shown) [Compound 30ad] | 30 to 200 nM |
| C=C[C@H]1C[C@@]1(NC(=O)C1C[C@@H](OC(=O)N2Cc3cccc(F)c3C2)CN1C(=O)[C@@H](NC(=O)[C@@H](NC(=O)c1cnccn1)C1CCCCC1)C(C)(C)C)C(=O)NS(=O)(=O)C1CC1 (stereo partly shown) [Compound 30k] | < 30 nM |
| C=C[C@H]1C[C@@]1(NC(=O)C1C[C@@H](OC(=O)N2Cc3cc4c(cc3C2)OCCCO4)CN1C(=O)[C@@H](NC(=O)[C@@H](NC(=O)c1cnccn1)C1CCCCC1)C(C)(C)C)C(=O)NS(=O)(=O)C1CC1 (stereo partly shown) [Compound 30g] | < 30 nM |

same assay, conditions: HCV NS3-4A protease inhibition, 37° C., class symbols; read-out: NS3-NS4A IC50

| Compound | IC50 |
| --- | --- |
| CC(C)(C)OC(=O)N[C@H]1CCCCC/C=C\[C@@H]2C[C@@]2(C(=O)NS(=O)(=O)C2CC2)NC(=O)[C@@H]2C[C@@H](OC(=O)N3Cc4ccc5c(c4C3)OCCCO5)CN2C1=O [Compound 12n] | < 30 nM |
| CC(C)(C)OC(=O)N[C@H]1CCCCC/C=C\[C@@H]2C[C@@]2(C(=O)NS(=O)(=O)C2CC2)NC(=O)[C@@H]2C[C@@H](OC(=O)N3Cc4ccc5c(c4C3)OCCO5)CN2C1=O [Compound 12b] | < 30 nM |
| CC(C)(C)OC(=O)N[C@H]1CCCCC/C=C\[C@@H]2C[C@@]2(C(=O)NS(=O)(=O)C2CC2)NC(=O)[C@@H]2C[C@@H](OC(=O)N3Cc4cccc(F)c4C3)CN2C1=O [Compound 12-Ref, reference compound] | < 30 nM |
| CC(C)(C)OC(=O)N([C@H]1CCCCC/C=C\[C@@H]2C[C@@]2(C(=O)NS(=O)(=O)C2CC2)NC(=O)[C@@H]2C[C@@H](OC(=O)N3Cc4cc5c(cc4C3)OCO5)CN2C1=O)S(C)(=O)=O [Compound 12s] | < 30 nM |
| O=C1N[C@]2(C(=O)NS(=O)(=O)C3CC3)C[C@H]2/C=C\CCCCC[C@H](N2CCCS2(=O)=O)C(=O)N2C[C@H](OC(=O)N3Cc4cc5c(cc4C3)OCO5)C[C@@H]12 [Compound 12k] | < 30 nM |
| CC(C)(C)OC(=O)N([C@H]1CCCCC/C=C\[C@@H]2C[C@@]2(C(=O)NS(=O)(=O)C2CC2)NC(=O)[C@@H]2C[C@@H](OC(=O)N3Cc4cccc(F)c4C3)CN2C1=O)S(C)(=O)=O [Compound 12u] | < 30 nM |
| O=C1N[C@]2(C(=O)NS(=O)(=O)C3CC3)C[C@H]2/C=C\CCCCC[C@H](NS(=O)(=O)c2ccccc2)C(=O)N2C[C@H](OC(=O)N3Cc4cc5c(cc4C3)OCO5)C[C@@H]12 [Compound 16b] | < 30 nM |
| CC(C)(C)OC(=O)N[C@H]1CCCCC/C=C\[C@@H]2C[C@@]2(C(=O)NS(=O)(=O)C2CC2)NC(=O)[C@@H]2C[C@@H](OC(=O)N3Cc4cc5c(cc4C3)OCCCO5)CN2C1=O [Compound 12p] | < 30 nM |
| CC(C)(C)OC(=O)N[C@H]1CCCCC/C=C\[C@@H]2C[C@@]2(C(=O)NS(=O)(=O)C2CC2)NC(=O)[C@@H]2C[C@@H](OC(=O)N3Cc4cc5c(cc4C3)OCO5)CN2C1=O [Compound 12d] | < 30 nM |
| O=C1N[C@]2(C(=O)NS(=O)(=O)C3CC3)C[C@H]2/C=C\CCCCC[C@H](Nc2cccc(F)c2)C(=O)N2C[C@H](OC(=O)N3Cc4cc5c(cc4C3)OCO5)C[C@@H]12 [Compound 15b] | < 30 nM |
| CC(C)OC(=O)N[C@H]1CCCCC/C=C\[C@@H]2C[C@@]2(C(=O)NS(=O)(=O)C2CC2)NC(=O)[C@@H]2C[C@@H](OC(=O)N3Cc4cc5c(cc4C3)OCO5)CN2C1=O [Compound 12q] | < 30 nM |
| O=C1N[C@]2(C(=O)NS(=O)(=O)C3CC3)C[C@H]2/C=C\CCCCCN(C2CC2)C(=O)C2C[C@H](OC(=O)N3Cc4ccc5c(c4C3)OCO5)C[C@@H]12 (stereo partly shown) [Compound 21d] | 30 to 200 nM |
| O=C1N[C@]2(C(=O)NS(=O)(=O)C3CC3)C[C@H]2/C=C\CCCCCN(C2CC2)C(=O)C2C[C@H](OC(=O)N3Cc4cc5c(cc4C3)OCO5)C[C@@H]12 (stereo partly shown) [Compound 21b] | 30 to 200 nM |

More lines, now with the values ahead:

| IC50 | Compound |
| --- | --- |
| < 30 nM | C=C[C@H]1C[C@@]1(NC(=O)C1C[C@@H](OC(=O)N2Cc3cc4c(cc3C2)OCO4)CN1C(=O)[C@@H](NC(=O)OC(C)(C)C)C(C)(C)C)C(=O)NS(=O)(=O)C1CC1 (stereo partly shown) [Compound 30af] |
| < 30 nM | C=C[C@H]1C[C@@]1(NC(=O)C1C[C@@H](OC(=O)N2Cc3ccc4c(c3C2)OCO4)CN1C(=O)[C@@H](NC(=O)OC1CCCC1)C(C)(C)C)C(=O)NS(=O)(=O)C1CC1 (stereo partly shown) [Compound 30an] |
| < 30 nM | CC[C@H]1C[C@@]1(NC(=O)C1C[C@@H](OC(=O)N2Cc3cc4c(cc3C2)OCO4)CN1C(=O)[C@@H](NC(=O)OC(C)(C)C)C(C)(C)C)C(=O)NS(=O)(=O)C1CC1 (stereo partly shown) [Compound 30ag] |
| < 30 nM | CC[C@H]1C[C@@]1(NC(=O)C1C[C@@H](OC(=O)N2Cc3cc4c(cc3C2)OCO4)CN1C(=O)[C@@H](NC(=O)[C@@H](NS(=O)(=O)c1ccccc1)C1CCCCC1)C(C)(C)C)C(=O)NS(=O)(=O)C1CC1 (stereo partly shown) [Compound 30r] |
| 30 to 200 nM | CN1CCCCC/C=C\[C@@H]2C[C@@]2(C(=O)NS(=O)(=O)C2CC2)NC(=O)[C@@H]2CC(OC(=O)N3Cc4cccc(F)c4C3)CN2C1=O (stereo partly shown) [Compound 27-Ref, reference compound] |
| < 30 nM | CC[C@H]1C[C@@]1(NC(=O)C1C[C@@H](OC(=O)N2Cc3cc4c(cc3C2)OCO4)CN1C(=O)[C@@H](NC(=O)OC1CCCC1)C(C)(C)C)C(=O)NS(=O)(=O)C1CC1 (stereo partly shown) [Compound 30am] |
| < 30 nM | C=C[C@H]1C[C@@]1(NC(=O)C1C[C@@H](OC(=O)N2Cc3cc4c(cc3C2)OCO4)CN1C(=O)[C@@H](NC(=O)OC1CCCC1)C(C)(C)C)C(=O)NS(=O)(=O)C1CC1 (stereo partly shown) [Compound 30ak] |
| < 30 nM | CC[C@H]1C[C@@]1(NC(=O)C1C[C@@H](OC(=O)N2Cc3cc4c(cc3C2)OCO4)CN1C(=O)[C@@H](NC(=O)[C@@H](NS(=O)(=O)c1ccc2ccccc2c1)C1CCCCC1)C(C)(C)C)C(=O)NS(=O)(=O)C1CC1 (stereo partly shown) [Compound 30s] |
| < 30 nM | C=C[C@H]1C[C@@]1(NC(=O)C1C[C@@H](OC(=O)N2Cc3ccc4c(c3C2)OCO4)CN1C(=O)[C@@H](NC(=O)OC(C)(C)C)C(C)(C)C)C(=O)NS(=O)(=O)C1CC1 (stereo partly shown) [Compound 30ah] |
| < 30 nM | C=C[C@H]1C[C@@]1(NC(=O)C1C[C@@H](OC(=O)N2Cc3cccc(F)c3C2)CN1C(=O)[C@@H](NC(=O)OC(C)(C)C)C(C)(C)C)C(=O)NS(=O)(=O)C1CC1 (stereo partly shown) [Compound 30aj] |
